Results from patent US7468270B2, “Probiotic strains, a process for the selection of them, compositions thereof, and their use” (Puleva Biotech, S.A., priority 2003, dated 2008).

System: Salmonella typhmurium and Escherichia coli
Experiment: Production of antimicrobial metabolites, agar well diffusion assay
Format: cell-based
Conditions: dilution of each metabolic acid at pH 4.5; data not shown
Protocol: The probiotic strains of this invention were assessed for their capability to produce antimicrobial metabolites using an agar well diffusion assay. MRS agar plates containing 10^6 cfu/ml of different pathogenic bacteria strain (Salmonella typhmurium and Escherichia coli) were prepared. Wells, with a diameter of 5 mm, where then cut in the agar using a sterile cork-borer. Then, 50 μl of a 2 fold concentrate supernatant of each probiotic strain culture were added to the wells and allowed to diffuse into the agar during a 2 hours preincubation period at 4° C., followed by aerobic incubation of the plates at 37° C. for 16-18 hours. The antimicrobial activity of each supernatant was considered high if the diameter of the inhibition hallo for both pathogenic bacteria strains was >12, moderate between 8 and 12, and slight <8 (FIG. 11)
Moreover, it was also tested if the antimicrobial activity of the supernatants was due to a antimicrobial substance or to the production of metabolic acids. […] It was also tested the antimicrobial capabilities of supernatants obtained from bacterial cultures using glucose or lactose as a carbohydrate source.

Q: Which “Inhibition of growth of Salmonella or E. coli by a dilution of metabolic acid” value does the source give for `CC(=O)O` [acetic] here?
A: None of these situations inhibited the growth

Q: For `CCCC(=O)O` [butyric, butyric acid], which “Inhibition of growth of Salmonella or E. coli by a dilution of metabolic acid” value is on record?
A: None of these situations inhibited the growth
